Assay results reported in patent publication US20010006673A1, “LUTEIN- CONTAINING SUPPLEMENT AND PROCESS FOR ENHANCING IMMUNE RESPONSE IN ANIMALS” (priority 1998, published 2001).

Columns and labels:
[1] = test system: Canine thyroid adenocarcinoma cells; experiment: NK cell cytotoxicity, dogs; assay type: in vivo, Beagle dogs
Experimental: Canine thyroid adenocarcinoma cells were used as target cells in assessing NK cell cytotoxic activity. This cell line was previously shown to be susceptible to killing by canine NK cell. Target cells were cultured in a T75 flask with 20 mL minimum essential medium (MEM; Sigma Chem. Co., St. Louis, Mo.) supplemented with 10% fetal calf serum (FC S), 100 U/mL of penicillin and 100 μg/mL of streptomycin. When confluent, target cells were trypsinized, washed 3 times and resuspended to 5×10^5 cells/mL in complete medium (RPMI-1640+10% FCS+100 U/mL of penicillin+100 μ/mL of streptomycin). Triplicate 100 μL aliquots of the target cells were pipetted into 96-well U-bottom plates (Costar, Cambridge, Mass.) and incubated for 8 hours to allow cell adherence. Lymphocytes (effector cells; 100 μL) isolated by percoll separation (as described above) were then added to the target cells to provide an effector:target cell (E:T) ratio of 10:1. After 10 hours of incubation at 37° C., 20 μl of a substrate containing 5 μg of 3-(4,5-dimethylthiazol-2-yl)-2,5-diphenyltetrazolium bromide (MTT) was added. […] Optical density was measured at 570 nm using a microplate reader. The percentage of NK cell-specific lysis was calculated as follows: Specific cytotoxicity (%)=100×{1−[(OD of target cells and effector cells−OD of effector cells)/(OD of target cells)]}

mouse splenocytes = conditions: dietary lutein; cited from earlier work
[2] = design: species or system Beagle dogs; conditions: dog, in vivo
Experimental: (§1) Fifty six female Beagle dogs (17 to 18 months old; average body weight 11.4±0.4 kg) were randomly assigned to be supplemented daily with 0, 5, 10 or 20 mg lutein for 17 weeks. The lutein contained 76.66% lutein and 5.23% zeaxanthin. The lutein supplement was resuspended in soybean oil to the appropriate concentration and 1 mL administered perorally at 0800 h daily. Food (200 g/dog/d) was offered immediately after the lutein supplementation. The basal diet shown in Table 1 below met or exceeded the requirements for all essential nutrients (NRC 1985).
All dogs were housed in 2×2 m pens (2 dogs/pen) in a temperature (20 to 22° C.) and light (14 h light) controlled facility. Body weight was recorded at weeks 0, 6, and 12.

IgG and IgM = experiment: Serum IgG and IgM by single radial immunodiffusion, dogs; assay type: in vivo, Beagle dogs
Experimental: Serum collected on weeks 0, 2, 4, 8 and 12 were analyzed for IgG and IgM concentrations by single radial immunodiffusion (SRID). In addition, all dogs were vaccinated with the polyvalent vaccine (Vanguard 5, Smithkline Beacham, West Chester, Pa.) on week 13 and again on week 15 to study the possible anamnestic effect of dietary lutein. Blood was collected weekly from week 13 through week 17. Goat antiserum to canine IgG (10%, whole molecule) or IgM (7.5%, μ chain specific) (ICN, Aurora, Ohio) was mixed with melted agarose (10 g/L in PBS; Sigma Chem. Co., St. Louis, Mo.) and the mixture solidified in SRID plates.
Duplicate 5 μL volumes of serum or IgG (0, 2.88, 5.75, 11.5 and 23.0 mg/ml) or IgM (0, 0.25, 0.5, 1.0 and 2.0 mg/ml) standard were loaded into the wells. After incubating for 24 hours at room temperature in a humidified chamber, ring diameters were measured using a SRID reader (Transidyne General Corp., Ann Arbor, Mich.).

Splenocytes = conditions: splenocytes from mice injected peritoneally; cited from earlier work
[3] = Plasma extraction and HPLC analysis in dogs (lutein+zeaxanthin, retinol, α-tocopherol); assay type: in vivo, Beagle dogs
Experimental: as §1
Blood was collected by jugular venipuncture into heparinized evacuated tubes on weeks 0, 2, 4, 8 and 12 and aliquots used for HPLC analysis and for assessing immune responses.
Plasma was extracted for analysis of lutein, zeaxanthin, retinol and α-tocopherol. Briefly, plasma protein was precipitated by adding an equal volume of ethanol containing 0.1% butylated hydroxytoluene (BHT) (Aldrich Chemical Co., Milwaukee, Wis.). The mixture was extracted with 5 mL of a 1:1 mixture of petroleum ether:anhydrous diethyl ether.
The dried residue was resuspended in mobile phase consisting of a 47:47:6 (v:v:v) mixture of HPLC-grade acetonitrile: methanol: chloroform (Fisher Scientific, Fair Lawn, N.J.). Lutein, zeaxanthin and α-tocopherol were quantitated by comparing the area under the curve whereas retinol was quantitated using peak height. The identity of the eluted compounds was confirmed by comparing their absorption spectrum with that of pure standards. Because baseline separation of lutein and zeaxanthin was not accomplished, plasma concentrations were reported as lutein+zeaxanthin.

[4] = test system: lymphocyte subsets (CD3, CD4, CD8, MHC class II, CD21); experiment: Lymphocyte subpopulations by flow cytometry, cats; assay type: in vivo, Tabby cats
Experimental: Blood leukocytes were separated on Histopaque-1119 (Sigma, St. Louis, Mo.) and cells washed three times with phosphate-buffered saline (PBS, pH 7.4). Contaminating RBC were lysed with NH4Cl (8.4 g/L) and cell viability determined by trypan blue exclusion. Lymphocyte subsets were determined by FACScan flow cytometry (Becton Dickinson, San Jose, Calif.) immediately after cell preparation. Isolated PBMC were resuspended to 1×10^7 cells/mL phosphate buffered saline (PBS) supplemented with 2% gamma globulin-free serum, 5% goat serum and 0.2 g/L sodium azide (Baker, Phillipsburg, N.J.). For immunofluorescence analysis, 5×10^5 cells were incubated for 30 minutes on ice with a previously determined optimal concentration of mouse anti-cat primary monoclonal antibody. The antibodies were specific for the following lymphocyte subsets: total T cells (anti-CD3), T-helper cells (anti-CD4), T cytotoxic/suppressor cells (anti-CD8), lymphocytes expressing major histocompatibility complex (MHC) class II antigens (anti-MHC class II), and B cells (anti-CD21). Cells were then washed three times and incubated with a secondary antibody, fluorescein isothiocyanate (FITC)-conjugated goat F(ab′)2 anti-mouse IgG (H+L) (Caltag, Burlingame, Calif.) for 30 minutes on ice to visualize the bound antibody. Stained cells were fixed in 4% paraformaldehyde in preparation for acquisition. Appropriate negative controls were included to correct the level of background fluorescence. Fluorescence analysis was performed on lymphocytes gated by forward and side scatter. Data were expressed as a percentage of positive-staining cells corrected for cells stained nonspecifically with the secondary antibody.

In the case of `CC1=C[C@H](O)CC(C)(C)[C@H]1/C=C/C(C)=C/C=C/C(C)=C/C=C/C=C(C)/C=C/C=C(C)/C=C/C1=C(C)C[C@@H](O)CC1(C)C` [lutein], the “Effect on NK cell cytotoxic activity” value [1] is listed as “did not significantly influence”, the “Specific lysis of target cells by PBMC, average” value ([1]; across all treatments and sampling periods, E:T 10:1) is listed as 49.1±1.1% and the Lymphocyte proliferation (mouse splenocytes) is listed as “enhance”. The Body weight average [2] was 11.4 ± 0.4 kg, the “Effect on changes in body weight” value [2] was “did not significantly affect” and the “Plasma IgG” value (IgG and IgM; dogs fed 5 mg lutein, week 16, after revaccination on week 15, P<0.05) was “higher”. For the same compound, the “Plasma IgG” value (IgG and IgM; dogs fed 20 mg lutein, week 17, after revaccination on week 15) was “higher”, the “Concentration of plasma IgM” value (IgG and IgM; dogs, after revaccination) was “not changed” and the “Antibody response to T-dependent antigens” value (Splenocytes) was “enhanced”. For the same compound, the “Plasma concentrations of lutein+zeaxanthin” value ([3]; dogs fed 10 and 20 mg lutein, after week 2, more gradually) was “continued to increase”, the “Plasma lutein+zeaxanthin vs unsupplemented animals” value ([3]; dogs, weeks 2 through 12, P<0.05) was “significantly higher” and the “Plasma concentrations of lutein+zeaxanthin” value ([3]; lutein-supplemented dogs, after 2 weeks of feeding) was “increased rapidly”. The “Total number of T cells (CD3)” value ([4]; cats) was “did not influence significantly”, the “Percentage of CD21+ B cells” value ([4]; cats fed 10 mg lutein, week 12) was “significantly elevated” and the “Percentage of CD8+ T cytotoxic cells” value ([4]; cats, any of the time periods) was “not influenced significantly”. The “Percentage of MHC class II+ cells” value ([4]; cats, any of the time periods) was “not influenced significantly” and the “Ratio of CD4:CD8” value ([4]; cats, any of the time periods) was “not influenced significantly”.
